Source: publication PMC8870237, “Improved Multimodal Tumor Necrosis Imaging with IRDye800CW-DOTA Conjugated to an Albumin-Binding Domain” (Cancers, 2022)

How the values were obtained:
4T1-Luc2 tumors = experiment: SPECT/CT tumor necrosis imaging, quantified tumor uptake; assay type: in vivo, mouse; details: 4T1-Luc2 tumor-bearing mice, 24 h p.i.
Description: The 4T1-Luc2 cells (1.0 × 10^5) suspended in 15 µL PBS were inoculated bilaterally in 16 mice in four groups of four animals each. Nine days later, the tumor-bearing mice were injected with [^111In]3 (20 MBq, 2 nmol, in 200 µL PBS) into the tail vein, after which imaging was performed at timepoints 6, 24, 48, and 72 h post-injection (p.i.) under isoflurane anesthesia (4% induction, 1.5 to 2% maintenance in 100% O2), whilst maintaining the body temperature constant. First, FLI imaging was performed with a 730 nm excitation and 760 nm emission filter for 400 ms with 4 × 4 binning. Then, the mice received an intraperitoneal injection of D-luciferin (150 mg/kg) maintaining the position of the mice in the bed unaltered, and BLI imaging was performed with an open filter for 400 ms with 4 × 4 binning. Full body (head to tail base) SPECT images of the 5 cm axial field of view were obtained over a total scan time of 30 min, followed by a 2 min full-body CT. After imaging, the mice were euthanized for ex vivo analysis.
Acquired SPECT and PET images were reconstructed using SR-OSEM with 9 iterations and 128 subsets on a 36 × 36 × 35 mm matrix with 0.80 mm isotropic voxels. For the PET images, a decay correction of 109.7 min was applied. The PET and SPECT images were superposed with CT. The images were further analyzed in Pi-Mod. […]

MCF7-Luc2 tumors = experiment: Tumor uptake in doxorubicin- or saline-treated MCF7-Luc2 tumor-bearing mice; assay type: in vivo, mouse; details: 24 h p.i., ±SEM
Description: The quadruple modality imaging procedure is illustrated in Figure S21. The tumor-bearing mice were injected with [^111In]3 (20 MBq, 2 nmol) in 200 µL PBS into the tail vein. The following day, the mice fasted for four hours before they were injected with [^18F]FDG (10 MBq, 200 µL) in PBS. At 24 h p.i. of [^111In]3 and 1 h p.i. of [^18F]FDG, FLI imaging was performed with a 730 nm excitation and 760 nm emission filter for 400 ms with 4 × 4 binning. Then, the mice received an intraperitoneal injection of D-luciferin (150 mg/kg) maintaining the position of the mice in the bed unaltered. During the onset of the bioluminescence signal, PET/SPECT imaging was performed of the tumors with a 2 cm axial field of view over a total scan time of 30 min, followed by a 2 min full-body CT. Finally, BLI imaging was performed with an open filter for 400 ms with 4 × 4 binning. Imaging was performed under isoflurane anesthesia whilst maintaining the body temperature constant.
Six mice were inoculated bilaterally with MCF7-Luc2 cells (3.0 × 10^6), suspended in 30 µL PBS:Matrigel (1:1; v/v). On days 14, 16, and 18 after inoculation, the tumor-bearing mice received either doxorubicin (5 mg/kg, Janssen Pharmaceuticals, Beerse, Belgium) or a saline solution via i.v. injection. On days 21 and 22 after inoculation, the mice underwent the FLI, BLI, and PET/SPECT/CT imaging procedure (vide supra).
After the final imaging experiments, the mice were sacrificed by cervical dislocation, tumors and organs were collected, weighted, and activity was accurately quantified by γ-counting to determine radioactivity uptake in the percentage of injected dose per gram (%ID/g). After γ-counting, the tumors were frozen in liquid nitrogen and stored at −80 °C overnight. Adjacent cryosections (10 µm) were prepared of the tumor centers for autoradiography. The sections were stored at −20 °C for the radioactivity to decay, before 800 nm fluorescence imaging and histochemical dead cell staining.

[1] = In vivo stability (radio-HPLC of urine 1 h after injection); set-up: species or system mouse; details: mice, i.v., 1 h p.i.
Description: After an hour, the mice were sacrificed by cervical dislocation and blood and urine were collected, which were frozen in liquid nitrogen directly after extraction. […] The supernatant was collected and analyzed by radio-HPLC (Method-D).

Structure (SMILES): CC1(C)C(=CC=C2CCCC(C=CC3=[N+](CCCCCC(=O)NCCCC[C@H](NC(=O)CCCc4ccc(I)cc4)C(=O)NCc4ccc(CNC(=O)CN5CCN(CC(=O)[O-])CCN(CC(=O)[O-])CCN(CC(=O)[O-])CC5)cc4)c4ccc(S(=O)(=O)O)cc4C3(C)C)=C2Oc2ccc(S(=O)(=O)O)cc2)N(CCCCS(=O)(=O)O)c2ccc(S(=O)(=O)O)cc21.[111In+3] [[^111In]3]
- radioactive tumor uptake in the SPECT images (4T1-Luc2 tumors): 3.83 ± 0.19 %ID/mL
- tumor uptake of [111In]3 (MCF7-Luc2 tumors; after doxorubicin treatment (5 mg/kg i.v., 3 injections)): 2.25 ± 0.16 %ID/g
- tumor uptake of [111In]3 (MCF7-Luc2 tumors; after saline treatment (control)): 1.74 ± 0.08 %ID/g
- in vivo stability, remained stable [1]: > 95%
